Values after ≈ are worked out from the molar mass of the structure shown. Read-outs that look alike come from different tables or passages of the source. One block for each compound: values may come before it.
Tests used:
[1] = in vitro drug release, inverted-cup method; format: physicochemical; details: for solubility: PBS pH 7.4 with 0.25% SDS (release medium), pH 7.4, read-out: solubility in the release media
Protocol: In a preliminary study, the release of ROP-ST from its oil solution was investigated at 25 °C using the dialysis method. Briefly, 0.5 mL of ROP-ST oil solution was placed into a dialysis bag (MWCO: 14 kDa) and immersed into 150 mL of PBS solution (pH 7.4) with 0.5% sodium dodecyl sulfate (SDS). The dialysis media were stirred with a magnetic bar at 100 r/min. An aliquot (1 mL) was withdrawn at predetermined time intervals, and ROP-ST in the samples was quantified using HPLC−UV. […] Therefore, an “inverted-cup” method was utilized in this study to investigate the release profile of ROP-ST (Figure 3a). Briefly, a beaker containing 150 mL of PBS solution (pH 7.4, with 0.25% SDS) as the release medium was placed on a magnetic stirrer and stirred continuously at 100 r/min at room temperature (25 °C). A transparent glass cylinder (inner diameter: 1 cm) with two open endings was placed vertically in the beaker, with one ending immersed in the PBS solution and the other ending exposed to air. Then, 1 mL of ROP-ST oil solution was added to a glass cylinder, and the ending exposed in air was sealed with a plastic thin-film. In the meantime, the beaker was also sealed with a plastic thin-film. At predetermined time intervals, an aliquot (1 mL) of the release medium were withdrawn by a syringe, and 1 mL of fresh release medium was immediately replenished. The concentration of ROP-ST in the samples was determined by HPLC−UV, and the cumulative release of ROP-ST was calculated accordingly. The experiment was performed in triplicates.
For comparison, the release of an ROP-free base from its soybean oil solution and the release of aripiprazole lauroxil (APL) from its soybean oil solution were also investigated. […] To prepare the APL oil solution, 90.4 mg of APL was dissolved and mixed in 5 mL of soybean oil. The concentration of APL was 18.08 mg/mL (27.37 mM). […] Moreover, the marketed APL injectables are suspensions; therefore, the release of APL from its suspension was also studied. This was carried out by placing 5.89 mg of APL into 150 mL of PBS7.4 solution directly, which contained 0.25% SDS. The solution was also stirred and sampled in the same way as described above. APL was analyzed according to the previously reported method.

[2] = saturated solubility (shake, 37 °C, 72 h, HPLC-UV); format: physicochemical; details: for SPBS 7.4, the solubility in PBS 7.4 solution: PBS pH 7.4, 37 °C
Protocol: After centrifugation at 12,000 r/min for 10 min (TGL-16C centrifuge; Anting Scientific Instrument Company, Shanghai, China), the supernatant was withdrawn, and the solution was filtered through a syringe filter (pore size: 0.45 μm). […] The experiments were performed in triplicates.
Quantification of ROP-ST was performed using an HPLC−UV system consisting of an LC-10AT VP pump, an SPD-10A VP UV–vis detector, a CTO-10A column oven, a SIL-10AF autosampler, and an SCL-10A VP controller (Shimadzu Corporation; Kyoto, Japan). Data were collected and processed using LC-solution software. Isocratic elution was performed on a Diamonsil C18 column (150 mm × 4.6 mm I.D., 5 µm), and an EasyGuard C18 guard column (10 × 4.0 mm I.D., 5 µm) was mounted upstream from the analytical column (Dikma Technologies; Beijing, China). The column temperature was kept at 35 °C, and the UV absorbance wavelength was set at 215 nm. The mobile phase, comprising 88% (v/v) acetonitrile and 12% (v/v) water with 0.1% (v/v) trifluoroacetic acid, was used after filtering through a filter membrane (pore size: 0.45 μm) and degassing within an ultrasonic water bath (KQ-500VDE Ultrasonic Cleaner; Kunshan, China) for 40 min. The flow rate was maintained at 1.0 mL/min, and the injection volume was 20 µL. The calibration curve was linear in the range of 1–200 μM, and the correlation coefficient was >0.9998. […] The lower limit of quantification (LOQ) of ROP-ST was 1 μM (equal to 0.57 μg/mL). The validation of the HPLC method can be found in Supplemental Materials.
Briefly, the column temperature was kept at 35 °C, and the UV absorbance wavelength was set at 240 nm. The mobile phase comprised 50% (v/v) acetonitrile and 50% (v/v) phosphate buffer. The phosphate buffer was prepared by mixing 1.3 mL of sodium dihydrogen phosphate (1 mol/L) with 32.5 mL of disodium hydrogen phosphate (0.5 mol/L) and diluting to 1 L by water, and then the pH value was adjusted to 8.0. The flow rate was maintained at 1.0 mL/min, and the injection volume was 20 µL. The validation of the quantification method can be found in the Supplementary Materials.

[3] = n-octanol/water partition coefficient (experimental Log P); format: physicochemical; details: 37 °C, read-out: Log Pexp., experimental Log P
Protocol: Approximately 1 mg of ROP-ST and ROP-free base were dissolved in a bi-phase mixture of water-saturated n-octanol solution and n-octanol-saturated water (5 mL:5 mL), respectively. After equilibration in a water bath shaker (37 °C) for 24 h, the two phases were sampled separately and diluted with acetonitrile. […] The Log P value of each compound was calculated accordingly. The experiments were performed in triplicates.

[4] = plasma stability study of ROP-ST; format: in vitro ADME, rat; details: 25 °C
Protocol: Healthy male Sprague–Dawley rats (SD rats, 200 ± 20 g) were provided by the Animal Experiment Center of Nantong University (protocol code of the ethical proof: S20240617-005). Blood samples were collected from the orbital cavity and centrifuged at 10,000 r/min for 10 min (TGL-16C centrifuge; Anting Scientific Instrument Company, Shanghai, China) to obtain blank plasma. The blank plasma was mixed with saline to obtain plasma solutions of 10%, 20%, and 40% (v/v) plasma, respectively. A half milliliter of saline, or 10%, 20%, and 40% plasma solution, was added to an EP tube, respectively, followed by adding 50 μL of methanolic solution of ROP-ST (concentration: 1100 μM) to each tube. The tubes were sealed and placed in a water bath shaker (37 °C). Three tubes were taken at each predetermined time point (0, 10, 20, 30, 40, 50, 60, 70, 80, and 90 min, respectively), rapidly frozen in liquid nitrogen to terminate the enzymatic reaction, and then stored at −80 °C. The samples were lyophilized to obtain dry residues. Before analysis, the residues were dissolved in methanol and subjected to ultrasonic treatment for 30 s. The resulting solution was filtered through a filter membrane (pore size: 0.45 μm), and the remaining levels of ROP-ST in subsequent filtrates were quantified by HPLC−UV. The hydrolysis rate constants (kobs) of the prodrug were calculated by plotting the natural logarithm of the remaining percentage against time. The corresponding half-life (t1/2) was then calculated (t1/2 = ln2/kobs). The experiment was conducted in triplicates.
(§1) The enzymatic stability of ROP-ST was examined by placing the methanolic solution of the prodrug into rat plasma solution and porcine liver esterase solution. […] The hydrolysis rate constants (kobs) of the prodrug were calculated by plotting the natural logarithm of the remaining percentage against time. The corresponding half-life (t1/2) was then calculated (t1/2 = ln2/kobs). Data at 25 °C were fitted approximately to a first-order kinetic equation for the prodrug loss (Figure 4). It should be noted that the actual hydrolytic kinetics of such lipophilic prodrugs by enzymes could be complicated in vitro and in vivo, which may not fully comply with the first-order kinetics. […] The rate of enzymatic cleavage increases as the concentration of rat plasma or the concentration of porcine liver esterase increases. In fact, the injection site of ROP-ST is muscle, which contains less esterase than the plasma. Therefore, it is logical to hypothesize that the bioconversion rate of ROP-ST in the muscle should be slower, which enables sustained release and long-acting efficacy.

[5] = in vitro drug release, dialysis method (preliminary); format: physicochemical; details: oil solution in dialysis bag MWCO 14 kDa, PBS pH 7.4 with 0.5% SDS, 25 °C, until 96 h
Protocol: In a preliminary study, the release of ROP-ST from its oil solution was investigated at 25 °C using the dialysis method. Briefly, 0.5 mL of ROP-ST oil solution was placed into a dialysis bag (MWCO: 14 kDa) and immersed into 150 mL of PBS solution (pH 7.4) with 0.5% sodium dodecyl sulfate (SDS). The dialysis media were stirred with a magnetic bar at 100 r/min. An aliquot (1 mL) was withdrawn at predetermined time intervals, and ROP-ST in the samples was quantified using HPLC−UV. […] Therefore, an “inverted-cup” method was utilized in this study to investigate the release profile of ROP-ST (Figure 3a). Briefly, a beaker containing 150 mL of PBS solution (pH 7.4, with 0.25% SDS) as the release medium was placed on a magnetic stirrer and stirred continuously at 100 r/min at room temperature (25 °C). A transparent glass cylinder (inner diameter: 1 cm) with two open endings was placed vertically in the beaker, with one ending immersed in the PBS solution and the other ending exposed to air. Then, 1 mL of ROP-ST oil solution was added to a glass cylinder, and the ending exposed in air was sealed with a plastic thin-film. In the meantime, the beaker was also sealed with a plastic thin-film. […] The concentration of ROP-ST in the samples was determined by HPLC−UV, and the cumulative release of ROP-ST was calculated accordingly. […]

porcine liver esterase = assay: liver esterase stability study of ROP-ST; format: in vitro ADME; details: for half-life at 100 µM: pig, porcine liver esterase solution
Protocol: (§2) Porcine liver esterase solutions were prepared by dissolving 4, 8, and 16 mg of porcine liver esterase powder (15 U/mg) into 12 mL of phosphate buffer (pH 8.0) to obtain porcine liver esterase solutions with the concentrations of 5, 10 and 20 U/mL, respectively. A half milliliter of blank buffer solution (pH 8 without enzyme) or porcine liver esterase solutions with the concentration of 5, 10, or 20 U/mL, respectively, was added to an EP tube, followed by adding 50 μL of methanolic solution of ROP-ST (concentration: 1100 μM) to each tube. The tubes were sealed and placed in a water bath shaker (25 °C) according to product instructions and a previous report. Three tubes were taken at each predetermined time point (0, 30, 45, 60, 75, 90, 105, and 120 min, respectively), rapidly frozen in liquid nitrogen to terminate the enzymatic reaction, and then stored at −80 °C. The subsequent treatments of the samples complied with the procedures described in “Section 2.5.1.”. The experiment was conducted in triplicates.
as §1

[6] = liver esterase stability study of ROP-ST; format: in vitro ADME, porcine; details: 0 U/mL, phosphate buffer (pH 8.0) without liver esterase, 25 °C
Protocol: as §2, §1

[7] = no reference given; cited from earlier work
[8] = 0% rat plasma (saline solution without rat plasma)
[9] = 5 U/mL porcine liver esterase, pH 8.0, 25 °C
[10] = 10 U/mL porcine liver esterase, pH 8.0, 25 °C
[11] = 20 U/mL porcine liver esterase, pH 8.0, 25 °C

solubility [1]: ~209 µM (≈ 138 µg/mL)
SMILES: CCCCCCCCCCCC(=O)OCN1C(=O)CCc2ccc(OCCCCN3CCN(c4cccc(Cl)c4Cl)CC3)cc21 [APL, aripiprazole lauroxil, reference compound]

released in the first 12 h ([1]; from soybean oil solution 27.37 mM, PBS pH 7.4 with 0.25% SDS, 25 °C): ~80% | solubility at 72 h ([2]; PBS buffer pH 7.4, pH 7.4, PBS pH 7.4, 37 °C, read-out: SPBS 7.4, the solubility in PBS 7.4 solution): ~1000 µM | solubility at 72 h ([2]; PBS buffer pH 7.4, pH 7.4, PBS pH 7.4, 37 °C, read-out: solubility in PBS 7.4 solution): ~270 µg/mL | SPBS 7.4, the solubility in PBS 7.4 solution [2]: 1040 ± 40 µM | solubility at 72 h ([2]; soybean oil, 37 °C, read-out: Soil, the solubility in soybean oil): 37000 ± 530 µM | logP at 24 h [3]: 1.88 ± 0.17
SMILES: CCCN1CCCC[C@H]1C(=O)Nc1c(C)cccc1C [ROP, Ropivacaine]

solubility [1]: ~1500 µM (≈ 856 µg/mL) | total cumulative release ([1]; from soybean oil solution 27.37 mM, PBS pH 7.4 with 0.25% SDS, 25 °C, 72 h): 69.55% | duration of sustained release ([1]; from soybean oil solution, PBS pH 7.4 with 0.25% SDS, 25 °C): more than 72 h | half-life at 100 µM [4, 8]: 82.2 ± 26.2 h | half-life at 100 µM ([4]; male, Sprague-Dawley, 10% (v/v) rat plasma in saline, 10% (v/v) rat plasma): 1.59 ± 0.06 h | half-life at 100 µM ([4]; male, Sprague-Dawley, 20% (v/v) rat plasma in saline, 20% (v/v) rat plasma): 1.04 ± 0.06 h | half-life at 100 µM ([4]; male, Sprague-Dawley, 40% (v/v) rat plasma in saline, 40% (v/v) rat plasma): 1.04 ± 0.05 h | SPBS 7.4, the solubility in PBS 7.4 solution [2]: <LOQ | Soil, the solubility in soybean oil ([2]; soybean oil, 37 °C): Miscible | ROP-ST detected in dialysis medium [5]: no ROP-ST was detected | k × 10^3, first-order hydrolysis rate constant (porcine liver esterase; 0 U/mL, phosphate buffer (pH 8.0) without liver esterase, 25 °C): 8.0 ±1.3 h^−1 | k × 10^3, first-order hydrolysis rate constant (porcine liver esterase; [9]): 107.9 ± 29.0 h^−1 | k × 10^3, first-order hydrolysis rate constant (porcine liver esterase; [10]): 159.6 ±1.3 h^−1 | k × 10^3, first-order hydrolysis rate constant (porcine liver esterase; [11]): 226.1 ± 24.7 h^−1 | half-life at 100 µM (porcine liver esterase; [9]): 6.78 ± 1.99 h | half-life at 100 µM (porcine liver esterase; [10]): 4.34 ± 0.03 h | half-life at 100 µM (porcine liver esterase; [11]): 3.09 ± 0.36 h | half-life at 100 µM [6]: 88.4 ± 14.9 h
SMILES: CCCCCCCCCCCCCCCCCC(=O)OCN(C(=O)C1CCCCN1CCC)c1c(C)cccc1C (stereo not drawn) [ROP-ST, ropivacaine stearoxil]
k × 10^3, first-order hydrolysis rate constant [4, 8]: 9.1 ± 3.2 h^−1 | k × 10^3, first-order hydrolysis rate constant ([4]; 10% (v/v) rat plasma): 436.6 ± 17.2 h^−1 | k × 10^3, first-order hydrolysis rate constant ([4]; 20% (v/v) rat plasma): 665.0 ± 35.2 h^−1 | k × 10^3, first-order hydrolysis rate constant ([4]; 40% (v/v) rat plasma): 666.9 ± 30.7 h^−1

SMILES: O=C1CCc2ccc(OCCCCN3CCN(c4cccc(Cl)c4Cl)CC3)cc2N1 [aripiprazole]
pKa [7]: 7.46
